Read-outs that look alike come from different tables or passages of the source.
Key:
blood = test: PT and PTT of blood after oral gavage; format: in vivo, rabbit; details: orally by gavage about 50 mg/kg in two spaced doses (solution of Example X); after 1 day
[1] = system: human platelet rich plasma; test: Platelet aggregation in platelet rich plasma, platelet aggregometer (technique of Born); format: cell-based; details: platelet rich plasma from men
Source text: A present preference for purposes of evaluating an - antithrombotic effect is to withdraw samples of blood from a patient undergoing treatment and to measure platelet aggregation. One method is described in the paper by Born in Nature 194, pp. 927-929 (1962), which may be used for this purpose if desired.
That sodium bisulfite is an antiplatelet aggregatory agent is shown by using a platelet aggregometer based on the technique of Born (above cited).
(§1) Platelet rich plasma from rabbit and men was prepared by the centrugation technique referenced in Example 13. Using ADP (adosine diphosphate) as a stimulus rapid aggregation of platelets occurred. […] This procedure is described in the article by Born in Nature, Vol. 194, pgs. 927-929 (1962).
as §1, with “rabbits” for “rabbit”, “diphosphate) arachidonic acid” for “diphosphate)”, “stimulus,” for “stimulus”, “Born,” for “Born in”

platelet rich plasma [2] = test: Platelet aggregation in platelet rich plasma from injected rabbit (ex vivo); details: injected with about 72 mg/kg of body weight; blood sample after 5 hours
Experimental: (§2) A rabbit is injected with about +72 mg/kg of body weight of triethyl amine bisulfite. After a period of 5 hours, a blood sample was withdrawn and centrifuged at 1000 r.p.m. (220 g) for 10 minutes to give a platelet rich plasma. […] It is concluded that triethyl amine bisulfite is an agent which inhibits thrombotic condition formation in vivo.
as §2, with “72” for “+72”, “sodium formaldehyde” for “triethyl amine”, “minuts” for “minutes”, “thrombus” for “thrombotic condition”

human plasma [3] = format: biochemical; details: for PT (effect in words): in vitro, 0.5 mg/ml
thrombus = test: Antithrombotic effect in rabbit (Kelton et al); format: in vivo; details: 50 mg/kg
Source text: Evaluation of the antithrombotic effect of sodium formaldehyde bisulfite was caried out on a rabbit as described in Kelton et al: "Thrombogenic Effect of High Dose Aspirin in Rabbits", Journal of Clinical Investigation", Volume 62, pages 892-895, 1978.

[4] = system: rabbit platelet rich plasma; test: Platelet aggregation in platelet rich plasma, platelet aggregometer (technique of Born); format: cell-based; details: platelet rich plasma from rabbit
Experimental: as §1
as §1, with “rabbits” for “rabbit”, “diphosphate) arachidonic acid” for “diphosphate)”, “stimulus,” for “stimulus”, “Born,” for “Born in”

[5] = system: thrombus formation in the jugular vein; test: I 125 fibrinogen technique, damaged jugular vein (venous thrombosis), continuous infusion; format: in vivo, rabbits
Experimental: The anti venous thrombotic effect of sodium bisulfite is evaluated in rabbits by using I ^125 fibrinogen technique as described in an article in "Archives of Surgery" Vol. 104, pg. 152 (1972).
The rabbit was continuously infused with aqueous sodium bisulfite solution at the rate of […]. (5.154 gram per hour) (animal body weight 2.3 kg) for a time of five hours. After 5 hours, the animal was sacrificed and the radioactive fibrinogen accumulated in the damaged jugular vein was determined. The radioactivity on the contra-lateral (undamaged) jugular vein was also determined to serve as a control. Concurrently, another rabbit had experienced the same procedure but received only a standard sodium chloride solution as a control. The rabbit from the normal saline solution has seven times as much radioactivity as his counterpart infused with sodium bisulfite.
Two jugular veins on a normal, healthy rabbit are exposed and one of the veins is systematically damaged by clamping in two longitudinally spaced places. The rabbit is then continuously infused with aqueous sodium formaldehyde bisulfite at the rate of […] (5.154 gram per hour) (animal body weight 2.3 kg). The rabbit is then injected with fibrinogen labeled with I^125. After 5 hours, the damaged jugular vein is evaluated for radioacive count with a Geiger counter.
This iodine 125 evaluation technique is described by Kakkar in Archieves of Surgery, Vol. 104, pg. 152 (1972) and by Kelton, J.G. et al, Journal of Clinical Investigation, Vol. 62, pgs. 892-895, (1978). […] Other rabbits, similarly evaluated, died, apparently because of overdose by the infustion technique.

human plasma [6] = format: biochemical; details: for PTT (effect in words): in vitro
FIBRINOGEN = target: T1, FIBRINOGEN (Homo sapiens, UniProt P02671+P02675+P02679); test: Coagulation factor assay (Biggs): fibrinogen; format: biochemical; details: mean of 2 experiments; control 205
T1 construct: from tissue; host or cells: human plasma
T1 sequence (P02671 20-629 limits assumed): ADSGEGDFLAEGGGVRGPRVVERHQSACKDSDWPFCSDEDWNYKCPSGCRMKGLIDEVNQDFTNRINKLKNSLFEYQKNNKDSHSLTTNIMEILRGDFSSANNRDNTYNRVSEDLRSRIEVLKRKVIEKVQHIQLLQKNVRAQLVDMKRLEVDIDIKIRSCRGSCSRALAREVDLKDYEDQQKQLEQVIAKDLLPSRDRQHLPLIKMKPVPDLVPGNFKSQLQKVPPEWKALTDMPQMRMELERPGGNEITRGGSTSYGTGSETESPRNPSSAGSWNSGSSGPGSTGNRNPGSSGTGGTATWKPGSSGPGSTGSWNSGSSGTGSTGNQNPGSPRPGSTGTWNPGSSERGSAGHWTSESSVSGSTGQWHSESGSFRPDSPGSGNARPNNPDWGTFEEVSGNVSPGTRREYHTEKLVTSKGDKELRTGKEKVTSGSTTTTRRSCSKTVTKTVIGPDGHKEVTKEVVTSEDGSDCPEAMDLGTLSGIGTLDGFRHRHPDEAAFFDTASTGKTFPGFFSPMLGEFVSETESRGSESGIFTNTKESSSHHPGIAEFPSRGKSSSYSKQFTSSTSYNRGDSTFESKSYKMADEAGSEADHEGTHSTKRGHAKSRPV
T1 sequence (P02675 31-491): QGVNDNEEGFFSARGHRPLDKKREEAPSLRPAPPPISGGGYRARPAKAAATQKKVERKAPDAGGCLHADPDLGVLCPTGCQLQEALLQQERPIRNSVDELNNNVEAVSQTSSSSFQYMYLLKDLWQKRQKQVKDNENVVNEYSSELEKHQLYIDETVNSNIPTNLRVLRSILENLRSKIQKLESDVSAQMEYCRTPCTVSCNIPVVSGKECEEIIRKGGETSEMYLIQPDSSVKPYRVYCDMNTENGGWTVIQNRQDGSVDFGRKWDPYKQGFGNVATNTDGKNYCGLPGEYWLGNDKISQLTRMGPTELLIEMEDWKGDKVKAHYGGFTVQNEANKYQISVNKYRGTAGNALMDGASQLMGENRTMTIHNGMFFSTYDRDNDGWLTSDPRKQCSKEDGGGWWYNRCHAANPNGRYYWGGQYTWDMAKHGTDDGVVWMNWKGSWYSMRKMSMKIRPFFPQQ
T1 sequence (P02679 27-453): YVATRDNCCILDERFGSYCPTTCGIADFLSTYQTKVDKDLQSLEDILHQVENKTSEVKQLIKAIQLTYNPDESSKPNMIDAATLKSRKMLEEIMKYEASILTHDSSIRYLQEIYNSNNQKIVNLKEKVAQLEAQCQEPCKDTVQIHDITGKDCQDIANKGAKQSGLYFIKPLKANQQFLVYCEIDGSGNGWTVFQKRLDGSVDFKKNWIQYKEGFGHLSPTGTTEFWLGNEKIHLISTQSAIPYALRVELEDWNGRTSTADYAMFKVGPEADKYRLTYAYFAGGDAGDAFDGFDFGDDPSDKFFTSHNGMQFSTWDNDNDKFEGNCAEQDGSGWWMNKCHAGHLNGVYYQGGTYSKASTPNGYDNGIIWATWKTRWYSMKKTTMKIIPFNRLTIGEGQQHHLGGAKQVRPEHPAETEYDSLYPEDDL

platelet rich plasma [7] = test: Platelet aggregation in platelet rich plasma, ADP stimulus (Example 25); format: cell-based; details: plasma first treated with the compound
Source text: Plasma was centrifuged at 1000 r.p.m. (200 g) to prepare a platelet rich plasma. Using adosine diphosphate (ADP) as a stimulous, rapid aggregation of platelets in the plasma was efected. On the other hand, when such plasma is first treatd with (a) tetramethyl ammonium sulfite, (b) tetramethyl ammonium bisulfite, and then (c) tetrabutyl

F IX = target: T2, F IX (Homo sapiens, UniProt P00740); test: Coagulation factor assay (Biggs): Factor IX; format: biochemical; details: single experiment; control 50
T2 construct: from tissue; host or cells: human plasma
T2 sequence (P00740 47-461): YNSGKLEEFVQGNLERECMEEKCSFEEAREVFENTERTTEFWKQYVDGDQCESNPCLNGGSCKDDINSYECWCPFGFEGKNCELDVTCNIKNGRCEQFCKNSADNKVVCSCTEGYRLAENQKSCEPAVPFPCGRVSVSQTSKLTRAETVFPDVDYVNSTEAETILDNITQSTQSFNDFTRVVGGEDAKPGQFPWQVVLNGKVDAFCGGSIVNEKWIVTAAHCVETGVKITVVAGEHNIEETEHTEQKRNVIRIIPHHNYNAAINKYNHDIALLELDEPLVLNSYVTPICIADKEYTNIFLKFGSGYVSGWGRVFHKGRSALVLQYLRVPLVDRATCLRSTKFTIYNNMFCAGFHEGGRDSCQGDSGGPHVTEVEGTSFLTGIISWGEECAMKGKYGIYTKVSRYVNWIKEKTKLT
Experimental: The effect of U.S.P. grade sodium bisulfite on blood coagulation factors is evaluated by standard procedures (Biggs) and the results are shown in Table III below.
References for PT, PTT, and assays of all the coagulation factors can be found in a standard textbook, entitled "Human Blood Coagulation, Haemostasis and Thrombosis", edited by Rosemary Biggs, published by Blackwell Scientific Publications, Oxford, England (2nd edition), pages 670-705, 1976.

rabbit plasma = test: Blood coagulation tests (PT, PTT, coagulation factors) in vitro; format: biochemical; details: rabbit plasma in vitro, 0.5 mg/ml
Source text: (§3) The alkali metalbisulfites, sodium and potassium, and ammonium bisulfite are found to prolong PT and PTT in a dose-related fashion.
The Solution I is found to prolong PT and PTT in a dose related fashion. […] The agent is active in inhibiting various coagulation factors, including factors VII, IX, X, XI, and XII.

rat plasma = test: as above; format: biochemical; details: rat plasma in vitro, 0.5 mg/ml
Source text: as §3

[8] = continuous infusion for five hours

O=S(=O)(O)CO [Sodium formaldehyde bisulfite]
PT and PTT values of the animal's blood compared with untreated control rabbit (blood): lengthened | platelet aggregation, ADP (adosine diphosphate) as a stimulus [1]: strong inhibition of platelet aggregation | aggregation of platelets in comparison with an untreated rabbit (platelet rich plasma [2]): markedly decreased | PT (human plasma [3]): 19.68 s | PT (human plasma [3]; 0.01 Molar, control 12.5): 24.4 | PT (human plasma [3]; coded agents 0.5mg/ml, […], control 12.92): 19.50 s | PT REPLICATIONS I (human plasma [3]; control 13.1 (14.1 for Sodium formaldehyde Bisulfite)): 20.5 | PT (effect in words) (human plasma [3]): effective | disappearance of the thrombus compared with a control animal (thrombus): the thrombus disappeared more rapidly | platelet aggregation, ADP (adosine diphosphate) as a stimulus [4]: strong inhibition of platelet aggregation | mortality of infused rabbits ([5]; continuous infusion): died | radioactivity (I 125 fibrinogen) in damaged jugular vein of saline control rabbit relative to treated rabbit [5, 8]: more radioactivity | thrombus formation in the jugular vein (conclusion in words) [5, 8]: definite positive effect of decreasing thrombus formation | PTT (human plasma [6]; 0.5 mg/ml, two different days, control 42.6 / 42.10): 56.30 s | PTT (human plasma [6]; 0.01 Molar, control 33.4): 54.6 | PTT (human plasma [6]; coded agents 0.5mg/ml, […], control 43.38): 58.60 s | PTT REPLICATIONS I (human plasma [6]; control 38.2 (50.5 for Sodium formaldehyde Bisulfite)): 63.5 | PTT (effect in words) (human plasma [6]; 0.5 mg/ml): effective

C[N+](C)(C)C [Tetramethyl-ammonium sulfite]
Fibrinogen (%) (FIBRINOGEN): 175% | platelet aggregation, adosine diphosphate (ADP) as a stimulous (platelet rich plasma [7]): inhibited | Factor IX (%) (F IX): 20%

potassium bisulfite
PT and PTT (effect in words) (rabbit plasma): significantly prolong | PT (effect in words) (human plasma [3]): significantly prolong | PT and PTT (effect in words) (rat plasma): significantly prolong | PTT (effect in words) (human plasma [6]; 0.5 mg/ml): significantly prolong
